# Measured values published in patent US20250368633A1, “AZEPINE FUSED RING COMPOUND AS RIPK1 INHIBITOR AND USE THEREOF” (ARTIVILA BIOPHARMA, priority 2022, published 2025).
# Key:
# [1] = molecular target: T1, RIPK1 kinase (Homo sapiens, UniProt Q13546); test: In vitro RIPK1 kinase activity IC50 assay (ADP-Glo); format: biochemical; conditions: ATP 10 μM; MBP substrate 100 μg/mL; 8 concentration points; read-out: IC50 range of compounds for RIPK1 kinase activity
# T1 construct: purchased Promega VA7593
# T1 sequence (Q13546 1-671): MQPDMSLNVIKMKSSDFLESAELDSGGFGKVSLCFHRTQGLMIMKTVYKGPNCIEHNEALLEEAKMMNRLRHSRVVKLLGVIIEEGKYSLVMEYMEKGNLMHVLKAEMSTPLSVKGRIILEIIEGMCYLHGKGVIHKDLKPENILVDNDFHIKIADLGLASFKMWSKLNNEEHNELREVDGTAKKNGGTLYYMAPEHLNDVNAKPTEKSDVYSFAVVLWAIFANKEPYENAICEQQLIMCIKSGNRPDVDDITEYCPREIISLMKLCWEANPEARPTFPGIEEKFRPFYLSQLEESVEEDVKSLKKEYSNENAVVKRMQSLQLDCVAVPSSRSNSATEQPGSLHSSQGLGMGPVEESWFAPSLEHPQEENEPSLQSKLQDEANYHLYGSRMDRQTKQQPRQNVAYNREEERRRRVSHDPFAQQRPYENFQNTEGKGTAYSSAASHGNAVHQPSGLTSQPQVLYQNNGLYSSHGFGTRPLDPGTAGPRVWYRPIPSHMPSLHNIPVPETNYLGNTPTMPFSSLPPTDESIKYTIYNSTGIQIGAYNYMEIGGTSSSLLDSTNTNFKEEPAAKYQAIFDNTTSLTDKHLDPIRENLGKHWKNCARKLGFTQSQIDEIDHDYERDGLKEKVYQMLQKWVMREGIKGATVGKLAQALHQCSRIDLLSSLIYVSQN
# Summary of the method: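 Human RIPK1 preincubated 15 min at room temperature with compound (8-point 1:5 dilution series, 1% DMSO in kinase buffer D). Reaction then ran 1 h with 10 μM ATP and 100 μg/mL MBP substrate; ADP measured by ADP-Glo luminescence, IC50 from four-parameter nonlinear fit.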
# [2] = system: U937 cells; test: Inhibition rate of compound (1 μM) on necroptosis of U937 cells (TSZ-induced, CellTiter-Glo); format: cell-based; conditions: TSZ (hTNF-α, SM-164, Z-VAD-FMK) 20 hours
# Summary of the method: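 U937 cells were pretreated 15 min with compound, then necroptosis was triggered with TSZ (Z-VAD-FMK, hTNF-α, SM-164) for 20 h at 37° C. Viability was read as ATP by CellTiter-Glo luminescence, and inhibition (%) was taken relative to no-TSZ and TSZ-only wells.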
Compound,IC50 [1],Inhibition rate range of compounds (1 μM) on U937 cell necroptosis [2]
"CN1C(=O)[C@@H](NC(=O)C(=O)NCCc2cccc(F)c2)COc2ccc(C#CCN3CCC(=O)CC3)cc21 [Example 118, (S)—N^1-(3-fluorophenethyl)-N^2-(5-methyl-4-oxo-7-(3-(4-oxopiperidin-1-yl)prop-1-yn-1-yl)-2,3,4,5-tetrahydrobenzo[b][1,4]oxazepin-3-yl)oxalamide]",< 100 nM,A (A: ≥90%)
"CN1C(=O)[C@@H](NC(=O)C(=O)NCCc2cccc(F)c2)COc2ccc(C#CCN3CCOCC3)cc21 [Example 120, (S)—N^1-(3-fluorophenethyl)-N^2-(5-methyl-7-(3-morpholinoprop-1-yn-1-yl)-4-oxo-2,3,4,5-tetrahydrobenzo[b][1,4]oxazepin-3-yl)oxalamide]",< 100 nM,A (A: ≥90%)
"CN1C(=O)[C@@H](NC(=O)C(=O)NCCc2cccc(F)c2)COc2ccc(C#CCN3C(=O)CCC3=O)cc21 [Example 122, (S)—N^1-(7-(3-(2,5-dioxopyrrolidin-1-yl)prop-1-yn-1-yl)-5-methyl-4-oxo-2,3,4,5-tetrahydrobenzo[b][1,4]oxazepin-3-yl)-N^2-(3-fluorophenethyl)oxalamide]",< 100 nM,A (A: ≥90%)
"CN1C(=O)[C@@H](NC(=O)C(=O)NCCc2cccc(F)c2)COc2ccc(C#CCN3CCNC(=O)C3)cc21 [Example 123, (S)—N^1-(3-fluorophenethyl)-N^2-(5-methyl-4-oxo-7-(3-(3-oxopiperazin-1-yl)prop-1-yn-1-yl)-2,3,4,5-tetrahydrobenzo[b][1,4]oxazepin-3-yl)oxalamide]",< 100 nM,B (B: 50-89%)
"C[C@@H](NC(=O)C(=O)N[C@H]1COc2ccc(C#CCN3CC[C@@H](O)C3)cc2N(C)C1=O)c1ccccc1 [Example 128, N^1-((S)-7-(3-((R)-3-hydroxypyrrolidin-1-yl)prop-1-yn-1-yl)-5-methyl-4-oxo-2,3,4,5-tetrahydrobenzo[b][1,4]oxazepin-3-yl)-N^2-((R)-1-phenylethyl)oxalamide]",< 100 nM,B (B: 50-89%)
"C[C@@H](NC(=O)C(=O)N[C@H]1COc2ccc(C#CCN3CC[C@H](O)C3)cc2N(C)C1=O)c1ccccc1 [Example 130, N^1-((S)-7-(3-((S)-3-hydroxypyrrolidin-1-yl)prop-1-yn-1-yl)-5-methyl-4-oxo-2,3,4,5-tetrahydrobenzo[b][1,4]oxazepin-3-yl)-N^2-((R)-1-phenylethyl)oxalamide]",< 100 nM,A (A: ≥90%)
"C[C@@H](NC(=O)C(=O)N[C@H]1COc2ccc(C#CC3(O)COC3)cc2N(C)C1=O)c1ccccc1 [Example 132, N^1-((S)-7-((3-hydroxyoxetan-3-yl)ethynyl)-5-methyl-4-oxo-2,3,4,5-tetrahydrobenzo[b][1,4]oxazepin-3-yl)-N^2-((R)-1-phenylethyl)oxalamide]",< 100 nM,A (A: ≥90%)
"C[C@@H](NC(=O)C(=O)N[C@H]1COc2ccc(C#CC3CCN(CC#N)CC3)cc2N(C)C1=O)c1ccccc1 [Example 137, N^1-((S)-7-((1-(cyanomethyl)piperidin-4-yl)ethynyl)-5-methyl-4-oxo-2,3,4,5-tetrahydrobenzo[b][1, 4]oxazepin-3-yl)-N^2-((R)-1-phenylethyl)oxalamide]",< 100 nM,A (A: ≥90%)
"C[C@@H](NC(=O)C(=O)N[C@H]1COc2ccc(C#CCN3CCC(O)CC3)cc2N(C)C1=O)c1ccccc1 [Example 138, N^1-((S)-7-(3-(4-hydroxypiperidin-1-yl)prop-1-yn-1-yl)-5-methyl-4-oxo-2,3,4,5-tetrahydrobenzo[b][1,4]oxazepin-3-yl)-N^2-((R)-1-phenylethyl)oxalamide]",< 100 nM,A (A: ≥90%)
"C[C@@H](NC(=O)C(=O)N[C@H]1COc2ccc(C#CCN3CCC(=O)CC3)cc2N(C)C1=O)c1ccccc1 [Example 139, N^1-((S)-5-methyl-4-oxo-7-(3-(4-oxopiperidin-1-yl)prop-1-yn-1-yl)-2,3,4,5-tetrahydrobenzo[b][1, 4]oxazepin-3-yl)-N^2-((R)-1-phenylethyl)oxalamide]",< 100 nM,B (B: 50-89%)
"C[C@@H](NC(=O)C(=O)N[C@H]1COc2ccc(C#CCN3CCOCC3)cc2N(C)C1=O)c1ccccc1 [Example 140, N^1-((S)-5-methyl-7-(3-morpholinoprop-1-yn-1-yl)-4-oxo-2,3,4,5-tetrahydrobenzo[b][1,4]oxazepin-3-yl)-N^2-((R)-1-phenylethyl)oxalamide]",< 100 nM,A (A: ≥90%)
"C[C@@H](NC(=O)C(=O)N[C@H]1COc2ccc(C#CCN3C(=O)CCC3=O)cc2N(C)C1=O)c1ccccc1 [Example 144, N^1-((S)-7-(3-(2,5-dioxopyrrolidin-1-yl)prop-1-yn-1-yl)-5-methyl-4-oxo-2,3,4,5-tetrahydrobenzo[b][1,4]oxazepin-3-yl)-N^2-((R)-1-phenylethyl)oxalamide]",< 100 nM,A (A: ≥90%)
"C[C@@H](NC(=O)C(=O)N[C@H]1COc2ccc(C#CCN3CCNC(=O)C3)cc2N(C)C1=O)c1ccccc1 [Example 145, N^1-((S)-5-methyl-4-oxo-7-(3-(3-oxopiperazin-1-yl)prop-1-yn-1-yl)-2,3,4,5-tetrahydrobenzo[b][1, 4]oxazepin-3-yl)-N^2-((R)-1-phenylethyl)oxalamide]",< 100 nM,A (A: ≥90%)
"C[C@@H](NC(=O)C(=O)N[C@H]1COc2ccc(C#CCN(C)C)cc2N(C)C1=O)c1ccccc1 [Example 146, N^1-((S)-7-(3-(dimethylamino)prop-1-yn-1-yl)-5-methyl-4-oxo-2,3,4,5-tetrahydrobenzo[b][1,4]oxazepin-3-yl)-N^2-((R)-1-phenylethyl)oxalamide]",< 100 nM,A (A: ≥90%)
"C[C@@H](NC(=O)C(=O)N[C@H]1COc2ccc(C#CC3CN(CC#N)C3)cc2N(C)C1=O)c1ccccc1 [Example 148, N^1-((S)-7-((1-(cyanomethyl)azetidin-3-yl)ethynyl)-5-methyl-4-oxo-2,3,4,5-tetrahydrobenzo[b][1, 4]oxazepin-3-yl)-N^2-((R)-1-phenylethyl)oxalamide]",< 100 nM,A (A: ≥90%)
"C[C@@H](CNC(=O)C(=O)N[C@H]1COc2ccc(C#CCCO)cc2N(C)C1=O)c1ccccc1 [Example 155, N^1-((S)-7-(4-hydroxybut-1-yn-1-yl)-5-methyl-4-oxo-2,3,4,5-tetrahydrobenzo[b][1,4]oxazepin-3-yl)-N^2-((R)-2-phenylpropyl)oxalamide]",< 100 nM,A (A: ≥90%)
"C[C@H](CNC(=O)C(=O)N[C@H]1COc2ccc(C#CCCO)cc2N(C)C1=O)c1ccccc1 [Example 156, N^1-((S)-7-(4-hydroxybut-1-yn-1-yl)-5-methyl-4-oxo-2,3,4,5-tetrahydrobenzo[b][1,4]oxazepin-3-yl)-N^2-((S)-2-phenylpropyl)oxalamide]",< 100 nM,A (A: ≥90%)
"C[C@@H](CNC(=O)C(=O)N[C@H]1COc2ccc(C#CC3(O)COC3)cc2N(C)C1=O)c1ccccc1 [Example 158, N^1-((S)-7-((3-hydroxyoxetan-3-yl)ethynyl)-5-methyl-4-oxo-2,3,4,5-tetrahydrobenzo[b][1,4]oxazepin-3-yl)-N^2-((R)-2-phenylpropyl)oxalamide]",< 100 nM,A (A: ≥90%)
"C[C@@H](CNC(=O)C(=O)N[C@H]1COc2ccc(C#CCN3CCOCC3)cc2N(C)C1=O)c1ccccc1 [Example 159, N^1-((S)-5-methyl-7-(3-morpholinoprop-1-yn-1-yl)-4-oxo-2,3,4,5-tetrahydrobenzo[b][1,4]oxazepin-3-yl)-N^2-((R)-2-phenylpropyl)oxalamide]",< 100 nM,A (A: ≥90%)
"CN1C(=O)C(NC(=O)C(=O)NCCc2cccc(F)c2)CCc2ccc(C#CCCO)cc21 (stereo not shown) [Example 167, N^1-(3-fluorophenethyl)-N^2-(8-(4-hydroxybut-1-yn-1-yl)-1-methyl-2-oxo-2,3,4,5-tetrahydro-1H-benzo[b]azepin-3-yl)oxalamide]",< 100 nM,A (A: ≥90%)
